Entries after “also recorded” stand apart in the source; their conditions may differ.
Legend:
mOREG = molecular target: T1, mOREG (Mus musculus, UniProt Q920P2); test: CRE luciferase reporter assay (Firefly:Renilla ratio), mOREG constructs; format: cell-based, murine; conditions: Rho-mOREG, Lucy-mOREG, no RTP1S, 100-300 μM eugenol
T1 construct: The mOR-EG full-length construct, containing N-terminal Flag/Rho tags; only in the L-EG and L-R-EG constructs) (N, cleaved yes); expressed in transfected cells; host or cells: HEK293T
T1 sequence (Q920P2 1-313): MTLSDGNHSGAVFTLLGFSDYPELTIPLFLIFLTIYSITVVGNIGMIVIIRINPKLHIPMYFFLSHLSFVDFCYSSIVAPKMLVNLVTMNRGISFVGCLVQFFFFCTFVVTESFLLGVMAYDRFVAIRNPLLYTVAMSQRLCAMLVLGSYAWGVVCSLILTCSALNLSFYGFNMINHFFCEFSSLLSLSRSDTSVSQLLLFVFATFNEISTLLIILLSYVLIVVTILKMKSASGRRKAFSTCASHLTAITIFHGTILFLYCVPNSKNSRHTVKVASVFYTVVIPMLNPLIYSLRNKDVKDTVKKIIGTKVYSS
Description: The luciferase assay was performed as previously described. Briefly, ORs were transfected into HEK293T cells along with constructs encoding for CREB-dependent luciferase (Firefly) and a constitutively expressed luciferase (Renilla). OR activation leads to a rise in cAMP which drives an increase in Firefly luciferase expression. Firefly activity is normalized to the activity of the Renilla luciferase to control for variation in cell number and transfection efficiency. Data were collected using a FLUOstar Omega automated platereader (BMG LabTech, Cary, N.C.). For some experiments, RTP1S was also transfected.
One-way ANOVA analysis followed by the Student-Newman Keuls test was performed on the luciferase reporter assay to compare the doses of isovaleric acid (0.1-5 mM) or eugenol (100-300 μM) to the non-treated control (0 μM). As each condition was performed in triplicate, the analyses were done with an n=3, and P values ≦0.05 were deemed significant. One-way ANOVE followed by Student-Newman Keuls was also used to analyze the surface expression data in FIG. 7. […]
As mOREG is one of the ORs that reach the cell surface under every condition tested, we expressed the OR with and without the Lucy and Rho tags and assessed its response to eugenol.

Olfr691 = molecular target: T2, Olfr691 (Mus musculus, UniProt Q8VGW5); test: CRE luciferase reporter assay (Firefly:Renilla ratio), Olfr691 constructs; conditions: 0.1-5 mM isovaleric acid
T2 sequence (Q8VGW5 1-322): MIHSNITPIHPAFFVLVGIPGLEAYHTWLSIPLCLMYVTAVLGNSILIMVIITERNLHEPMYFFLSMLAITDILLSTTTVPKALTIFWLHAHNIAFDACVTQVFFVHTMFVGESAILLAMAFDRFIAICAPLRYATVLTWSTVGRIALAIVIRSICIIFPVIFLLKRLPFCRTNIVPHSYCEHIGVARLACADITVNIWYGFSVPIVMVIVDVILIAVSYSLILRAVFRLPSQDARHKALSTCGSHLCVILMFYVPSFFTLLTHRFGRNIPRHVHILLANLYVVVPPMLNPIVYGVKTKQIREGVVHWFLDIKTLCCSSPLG

Structure (SMILES)	OR activation (Firefly:Renilla ratio) (mOREG)	OR activation (Firefly:Renilla ratio) (Olfr691; Lucy-Rho-Olfr691 with and without RTP1S)	OR activation (Firefly:Renilla ratio) (Olfr691; Rho-Olfr691 co-expressed with RTP1S)	OR activation (Firefly:Renilla ratio) (Olfr691; Rho-Olfr691 without RTP1S)
C=CCc1ccc(O)c(OC)c1 [eugenol]	all concentrations of eugenol significantly activated; also recorded: dose-dependent activation	–	–	–
CC(C)CC(=O)O [isovaleric acid]	–	responded to isovaleric acid in a dose-dependent manner	dose-dependent increase in the Firefly:Renilla ratio	no concentrations of isovaleric acid activated R-691; also recorded: not significantly activated at any concentration

From patent publication US20150087053A1, “COMPOSITIONS AND METHODS FOR INCREASING THE EXPRESSION AND SIGNALLING OF PROTEINS ON CELL SURFACES” (THE JOHNS HOPKINS UNIVERSITY, priority 2013, published 2015)
